According to BindingDB's records for doi:10.1016/j.bmc.2018.08.021 (Zhengzhou University, 2018):

What was measured:
[1] = Inhibition of ABCB1 (unknown origin) expressed in HEK293T cells assessed as potentiation of paclitaxel-induced cytotoxicity by measuring paclitaxel IC50 at 20 uM after 72 hrs by MTT assay (Rvb = 0.09 +/- 0.02 microM)
[2] = Inhibition of ABCB1 in human SW620/Ad300 cells assessed as potentiation of paclitaxel-induced cytotoxicity by measuring paclitaxel IC50 at 10 uM after 72 hrs by MTT assay (Rvb = 3.39 +/- 0.84 microM)
[3] = Inhibition of ABCB1 (unknown origin) expressed in HEK293T cells assessed as potentiation of cisplatin-induced cytotoxicity by measuring cisplatin IC50 at 4 uM after 72 hrs by MTT assay (Rvb = 7.22 +/- 0.45 microM)
[4] = Inhibition of ABCB1 in human SW620/Ad300 cells assessed as potentiation of cisplatin-induced cytotoxicity by measuring cisplatin IC50 at 10 uM after 72 hrs by MTT assay (Rvb = 0.61 +/- 0.03 microM)
[5] = Inhibition of ABCB1 in human SW620/Ad300 cells assessed as potentiation of paclitaxel-induced cytotoxicity by measuring paclitaxel IC50 at 20 uM after 72 hrs by MTT assay (Rvb = 3.39 +/- 0.84 microM)
[6] = Inhibition of ABCB1 (unknown origin) expressed in HEK293T cells assessed as potentiation of doxorubicin-induced cytotoxicity by measuring doxorubicin IC50 at 20 uM after 72 hrs by MTT assay (Rvb = 1.17 +/- 0.09 microM)
[7] = Inhibition of ABCB1 (unknown origin) expressed in HEK293T cells assessed as potentiation of paclitaxel-induced cytotoxicity by measuring paclitaxel IC50 at 10 uM after 72 hrs by MTT assay (Rvb = 0.09 +/- 0.02 microM)
[8] = Inhibition of ABCB1 in human SW620/Ad300 cells assessed as potentiation of doxorubicin-induced cytotoxicity by measuring doxorubicin IC50 at 20 uM after 72 hrs by MTT assay (Rvb = 6.15 +/- 0.63 microM)
[9] = Inhibition of ABCB1 (unknown origin) expressed in HEK293T cells assessed as potentiation of doxorubicin-induced cytotoxicity by measuring doxorubicin IC50 at 10 uM after 72 hrs by MTT assay (Rvb = 1.17 +/- 0.09 microM)
[10] = Inhibition of ABCB1 in human SW620/Ad300 cells assessed as potentiation of cisplatin-induced cytotoxicity by measuring cisplatin IC50 at 4 uM after 72 hrs by MTT assay (Rvb = 0.61 +/- 0.03 microM)
[11] = Inhibition of ABCB1 in human SW620/Ad300 cells assessed as potentiation of cisplatin-induced cytotoxicity by measuring cisplatin IC50 at 20 uM after 72 hrs by MTT assay (Rvb = 0.61 +/- 0.03 microM)
[12] = Inhibition of ABCB1 in human SW620/Ad300 cells assessed as potentiation of doxorubicin-induced cytotoxicity by measuring doxorubicin IC50 at 4 uM after 72 hrs by MTT assay (Rvb = 6.15 +/- 0.63 microM)
[13] = Inhibition of ABCB1 (unknown origin) expressed in HEK293T cells assessed as potentiation of cisplatin-induced cytotoxicity by measuring cisplatin IC50 at 10 uM after 72 hrs by MTT assay (Rvb = 7.22 +/- 0.45 microM)
[14] = Inhibition of ABCB1 (unknown origin) expressed in HEK293T cells assessed as potentiation of cisplatin-induced cytotoxicity by measuring cisplatin IC50 at 20 uM after 72 hrs by MTT assay (Rvb = 7.22 +/- 0.45 microM)
[15] = Inhibition of ABCB1 (unknown origin) expressed in HEK293T cells assessed as potentiation of paclitaxel-induced cytotoxicity by measuring paclitaxel IC50 at 4 uM after 72 hrs by MTT assay (Rvb = 0.09 +/- 0.02 microM)
[16] = Inhibition of ABCB1 in human SW620/Ad300 cells assessed as potentiation of paclitaxel-induced cytotoxicity by measuring paclitaxel IC50 at 4 uM after 72 hrs by MTT assay (Rvb = 3.39 +/- 0.84 microM)
[17] = Inhibition of ABCB1 in human SW620/Ad300 cells assessed as potentiation of doxorubicin-induced cytotoxicity by measuring doxorubicin IC50 at 10 uM after 72 hrs by MTT assay (Rvb = 6.15 +/- 0.63 microM)
[18] = Inhibition of ABCB1 (unknown origin) expressed in HEK293T cells assessed as potentiation of doxorubicin-induced cytotoxicity by measuring doxorubicin IC50 at 4 uM after 72 hrs by MTT assay (Rvb = 1.17 +/- 0.09 microM)

Question: With `O=c1cc(-c2ccccc2)[nH]c2nc(SCc3nc4ccccc4[nH]3)nn12` as the compound, how does the IC50 [1] read?
Answer: 40 nM

Question: What about the IC50 [2] of the same compound?
Answer: 1470 nM

Question: What about the IC50 [3] of the same compound?
Answer: 7100 nM

Question: What about the IC50 [4] of the same compound?
Answer: 1550 nM

Question: What about the IC50 [5] of the same compound?
Answer: 660 nM

Question: And the IC50 [6]?
Answer: 290 nM

Question: And the IC50 [7]?
Answer: 50 nM

Question: And the IC50 [8]?
Answer: 800 nM

Question: And the IC50 [9]?
Answer: 380 nM

Question: And the IC50 [10]?
Answer: 1590 nM

Question: What about the IC50 [11] of the same compound?
Answer: 1640 nM

Question: What about the IC50 [12] of the same compound?
Answer: 920 nM

Question: What about the IC50 [13] of the same compound?
Answer: 8260 nM

Question: What about the IC50 [14] of the same compound?
Answer: 7160 nM

Question: What about the IC50 [15] of the same compound?
Answer: 30 nM

Question: And the IC50 [16]?
Answer: 830 nM

Question: What about the IC50 [17] of the same compound?
Answer: 1280 nM

Question: And the IC50 [18]?
Answer: 290 nM
